Tested on: Human patients with short bowel syndrome
Experiment: Example 2: liver biomarkers (albumin, gamma glutamyl transferase, total bilirubin, ALT, AST, ALP) in short bowel syndrome patients, every four weeks for 24 weeks
Type: in vivo
Settings: 0.05 mg/kg/d; for Gamma Glutamyl Transferase Change from Baseline, Median / Gamma Glutamyl Transferase Observed Value, Mean / Gamma Glutamyl Transferase Observed Value, Median / ALKALINE PHOSPHATASE Change from Baseline, Median / ALT Change from Baseline, Mean / ALT Change from Baseline, Median / ALT Observed Value, Mean / ALT Observed Value, Median / AST Change from Baseline, Mean / AST Change from Baseline, Median / AST Observed Value, Mean / AST Observed Value, Median / Albumin Change from Baseline, Mean / Albumin Change from Baseline, Median / Albumin Observed Value, Mean / Albumin Observed Value, Median / Alkaline Phosphatase Change from Baseline, Mean / Alkaline Phosphatase Observed Value, Mean / Alkaline Phosphatase Observed Value, Median / Bilirubin Change from Baseline, Mean / Bilirubin Change from Baseline, Median / Bilirubin Observed Value, Mean / Bilirubin Observed Value, Median / Gamma Glutamyl Transferase Change from Baseline, Mean: n=40; for ALT >10% decrease from Baseline, % of subjects / ALT >10% decrease from Baseline, n subjects / ALT >10% increase from Baseline, % of subjects / ALT >10% increase from Baseline, n subjects / ALT Within 10% of Baseline, % of subjects / ALT Within 10% of Baseline, n subjects / AST >10% decrease from Baseline, % of subjects / AST >10% decrease from Baseline, n subjects / AST >10% increase from Baseline, % of subjects / AST >10% increase from Baseline, n subjects / AST Within 10% of Baseline, % of subjects / AST Within 10% of Baseline, n subjects / Albumin >10% decrease from Baseline, % of subjects / Albumin >10% decrease from Baseline, n subjects / Albumin >10% increase from Baseline, % of subjects / Albumin >10% increase from Baseline, n subjects / Albumin Within 10% of Baseline, % of subjects / Albumin Within 10% of Baseline, n subjects / Alkaline Phosphatase >10% decrease from Baseline, % of subjects / Alkaline Phosphatase >10% decrease from Baseline, n subjects / Alkaline Phosphatase >10% increase from Baseline, % of subjects / Alkaline Phosphatase >10% increase from Baseline, n subjects / Alkaline Phosphatase Within 10% of Baseline, % of subjects / Alkaline Phosphatase Within 10% of Baseline, n subjects / Bilirubin >10% decrease from Baseline, % of subjects / Bilirubin >10% decrease from Baseline, n subjects / Bilirubin >10% increase from Baseline, % of subjects / Bilirubin >10% increase from Baseline, n subjects / Bilirubin Within 10% of Baseline, % of subjects / Bilirubin Within 10% of Baseline, n subjects: m=40
Method: To further confirm the results of Example 1, a further study was conducted involving more individuals and additional diagnostic biomarkers. Human patients with short bowel syndrome were divided into two groups: a control group (43 total individuals) to receive placebo, and an experimental group (42 total individuals) to receive teduglutide at 0.05 mg/kg/day throughout the study. Patients were treated by subcutaneous injection of placebo or the appropriate dose of teduglutide. Known biomarkers of liver function were monitored every four weeks, for 24 weeks. The liver biomarkers tested included albumin, gamma glutamyl transferase, total bilirubin, ALT and AST and ALP. Before administration of placebo or teduglutide, diagnostic biomarker levels were tested to establish a baseline for each individual.
To determine the effect of GLP-2 on the levels of the diagnostic biomarkers, the average level of each biomarker was measured for the placebo and teduglutide treated groups for each visit. Furthermore, the average change from baseline was calculated using the established baseline values. For FIGS. 17-28, p-values were calculated using the t-test.
P values are provided, which were calculated for each distribution of biomarker changes for each week using the chi-squared test.

## CC[C@H](C)[C@H](NC(=O)[C@H](Cc1ccccc1)NC(=O)[C@H](CC(=O)O)NC(=O)[C@H](CCCNC(=N)N)NC(=O)[C@H](C)NC(=O)[C@H](C)NC(=O)[C@H](CC(C)C)NC(=O)[C@H](CC(N)=O)NC(=O)[C@H](CC(=O)O)NC(=O)[C@H](CC(C)C)NC(=O)[C@@H](NC(=O)[C@@H](NC(=O)[C@H](CC(N)=O)NC(=O)[C@H](CCSC)NC(=O)[C@H](CCC(=O)O)NC(=O)[C@H](CC(=O)O)NC(=O)[C@H](CO)NC(=O)[C@H](Cc1ccccc1)NC(=O)[C@H](CO)NC(=O)CNC(=O)[C@H](CC(=O)O)NC(=O)CNC(=O)[C@@H](N)Cc1c[nH]cn1)[C@@H](C)O)[C@@H](C)CC)C(=O)N[C@@H](CC(N)=O)C(=O)N[C@@H](Cc1c[nH]c2ccccc12)C(=O)N[C@@H](CC(C)C)C(=O)N[C@H](C(=O)N[C@@H](CCC(N)=O)C(=O)N[C@H](C(=O)N[C@@H](CCCCN)C(=O)N[C@H](C(=O)N[C@H](C(=O)N[C@@H](CC(=O)O)C(=O)O)[C@@H](C)O)[C@@H](C)CC)[C@@H](C)O)[C@@H](C)CC [teduglutide]
Week 2
  Gamma Glutamyl Transferase Change from Baseline, Median: 2.5 U/L
  Gamma Glutamyl Transferase Observed Value, Mean: 84.6 U/L
  Gamma Glutamyl Transferase Observed Value, Median: 52.5 U/L
Week 4
  ALT >10% decrease from Baseline, % of subjects: (65.0%)
  ALT >10% decrease from Baseline, n subjects: 26
  ALT >10% increase from Baseline, % of subjects: (15.0%)
  ALT >10% increase from Baseline, n subjects: 6
  ALT Within 10% of Baseline, % of subjects: (20.0%)
  ALT Within 10% of Baseline, n subjects: 8
  AST >10% decrease from Baseline, % of subjects: (65.0%)
  AST >10% decrease from Baseline, n subjects: 26
  AST >10% increase from Baseline, % of subjects: (20.0%)
  AST >10% increase from Baseline, n subjects: 8
  AST Within 10% of Baseline, % of subjects: (15.0%)
  AST Within 10% of Baseline, n subjects: 6
  Albumin >10% decrease from Baseline, % of subjects: (7.5%)
  Albumin >10% decrease from Baseline, n subjects: 3
  Albumin >10% increase from Baseline, % of subjects: (5.0%)
  Albumin >10% increase from Baseline, n subjects: 2
  Albumin Within 10% of Baseline, % of subjects: (87.5%)
  Albumin Within 10% of Baseline, n subjects: 35
  Alkaline Phosphatase >10% decrease from Baseline, % of subjects: (55.0%)
  Alkaline Phosphatase >10% decrease from Baseline, n subjects: 22
  Alkaline Phosphatase >10% increase from Baseline, % of subjects: (5.0%)
  Alkaline Phosphatase >10% increase from Baseline, n subjects: 2
  Alkaline Phosphatase Within 10% of Baseline, % of subjects: (40.0%)
  Alkaline Phosphatase Within 10% of Baseline, n subjects: 16
  Bilirubin >10% decrease from Baseline, % of subjects: (47.5%)
  Bilirubin >10% decrease from Baseline, n subjects: 19
  Bilirubin >10% increase from Baseline, % of subjects: (35.0%)
  Bilirubin >10% increase from Baseline, n subjects: 14
  Bilirubin Within 10% of Baseline, % of subjects: (17.5%)
  Bilirubin Within 10% of Baseline, n subjects: 7
  ALKALINE PHOSPHATASE Change from Baseline, Median: −15.5 U/L
  ALT Change from Baseline, Mean: −9.2 U/L
  ALT Change from Baseline, Median: −7 U/L
  ALT Observed Value, Mean: 34.9 U/L
  ALT Observed Value, Median: 29 U/L
  AST Change from Baseline, Mean: −3.5 U/L
  AST Change from Baseline, Median: −5 U/L
  AST Observed Value, Mean: 29.1 U/L
  AST Observed Value, Median: 26.5 U/L
  Albumin Change from Baseline, Mean: -0.7 g/L
  Albumin Change from Baseline, Median: -1 g/L
  Albumin Observed Value, Mean: 41.7 g/L
  Albumin Observed Value, Median: 42 g/L
  Alkaline Phosphatase Change from Baseline, Mean: −20.5 U/L
  Alkaline Phosphatase Observed Value, Mean: 115.8 U/L
  Alkaline Phosphatase Observed Value, Median: 101 U/L
  Bilirubin Change from Baseline, Mean: -1.10 µmol/L
  Bilirubin Change from Baseline, Median: -1.5 µmol/L
  Bilirubin Observed Value, Mean: 11.31 µmol/L
  Bilirubin Observed Value, Median: 9.55 µmol/L
  Gamma Glutamyl Transferase Change from Baseline, Mean: 1.7 U/L
  Gamma Glutamyl Transferase Change from Baseline, Median: −0.5 U/L
  Gamma Glutamyl Transferase Observed Value, Mean: 78.9 U/L
  Gamma Glutamyl Transferase Observed Value, Median: 53.5 U/L
Week 8
  ALT >10% decrease from Baseline, % of subjects: (65.0%)
  ALT >10% decrease from Baseline, n subjects: 26
  ALT >10% increase from Baseline, % of subjects: (17.5%)
  ALT >10% increase from Baseline, n subjects: 7
  ALT Within 10% of Baseline, % of subjects: (17.5%)
  ALT Within 10% of Baseline, n subjects: 7
  AST >10% decrease from Baseline, % of subjects: (60.0%)
  AST >10% decrease from Baseline, n subjects: 24
  AST >10% increase from Baseline, % of subjects: (20.0%)
  AST >10% increase from Baseline, n subjects: 8
  AST Within 10% of Baseline, % of subjects: (20.0%)
  AST Within 10% of Baseline, n subjects: 8
  Albumin >10% decrease from Baseline, % of subjects: (2.5%)
  Albumin >10% decrease from Baseline, n subjects: 1
  Albumin >10% increase from Baseline, % of subjects: (2.5%)
  Albumin >10% increase from Baseline, n subjects: 1
  Albumin Within 10% of Baseline, % of subjects: (95.0%)
  Albumin Within 10% of Baseline, n subjects: 38
  Alkaline Phosphatase >10% decrease from Baseline, % of subjects: (62.5%)
  Alkaline Phosphatase >10% decrease from Baseline, n subjects: 25
  Alkaline Phosphatase >10% increase from Baseline, % of subjects: (5.0%)
  Alkaline Phosphatase >10% increase from Baseline, n subjects: 2
  Alkaline Phosphatase Within 10% of Baseline, % of subjects: (32.5%)
  Alkaline Phosphatase Within 10% of Baseline, n subjects: 13
  Bilirubin >10% decrease from Baseline, % of subjects: (50.0%)
  Bilirubin >10% decrease from Baseline, n subjects: 20
  Bilirubin >10% increase from Baseline, % of subjects: (25.0%)
  Bilirubin >10% increase from Baseline, n subjects: 10
  Bilirubin Within 10% of Baseline, % of subjects: (25.0%)
  Bilirubin Within 10% of Baseline, n subjects: 10
  ALKALINE PHOSPHATASE Change from Baseline, Median: −18.5 U/L
  ALT Change from Baseline, Mean: −10.2 U/L
  ALT Change from Baseline, Median: −5.5 U/L
  ALT Observed Value, Mean: 33.9 U/L
  ALT Observed Value, Median: 26 U/L
  AST Change from Baseline, Mean: −5.1 U/L
  AST Change from Baseline, Median: −5 U/L
  AST Observed Value, Mean: 27.5 U/L
  AST Observed Value, Median: 23.5 U/L
  Albumin Change from Baseline, Mean: -0.7 g/L
  Albumin Change from Baseline, Median: -1 g/L
  Albumin Observed Value, Mean: 41.7 g/L
  Albumin Observed Value, Median: 42 g/L
  Alkaline Phosphatase Change from Baseline, Mean: −24.3 U/L
  Alkaline Phosphatase Observed Value, Mean: 112.0 U/L
  Alkaline Phosphatase Observed Value, Median: 94 U/L
  Bilirubin Change from Baseline, Mean: -1.60 µmol/L
  Bilirubin Change from Baseline, Median: -0.95 µmol/L
  Bilirubin Observed Value, Mean: 10.81 µmol/L
  Bilirubin Observed Value, Median: 7.75 µmol/L
  Gamma Glutamyl Transferase Change from Baseline, Mean: −5.7 U/L

From US20130072430A1, “METHODS FOR TREATMENT OR PROPHYLAXIS OF KIDNEY OR LIVER DYSFUNCTION” (NPS PHARMACEUTICALS, INC., priority 2010, published 2013)
